The target in one series is MDR1 (P-gp, ABCB1) (Homo sapiens, UniProt P08183). The series is described as follows: Activity at human MDR1 transfected in MDCK cells assessed as efflux ratio of apparent permeability from basolateral to apical side over apical to basolateral side at 5 uM. Format: ADME, cell-based.
In series [1] the target is T1, Leucine-rich repeat serine/threonine-protein kinase 2 (Homo sapiens, UniProt Q5S007). The series is described as follows: Inhibition of LRRK2 (unknown origin).
T1 sequence (Q5S007 whole entry): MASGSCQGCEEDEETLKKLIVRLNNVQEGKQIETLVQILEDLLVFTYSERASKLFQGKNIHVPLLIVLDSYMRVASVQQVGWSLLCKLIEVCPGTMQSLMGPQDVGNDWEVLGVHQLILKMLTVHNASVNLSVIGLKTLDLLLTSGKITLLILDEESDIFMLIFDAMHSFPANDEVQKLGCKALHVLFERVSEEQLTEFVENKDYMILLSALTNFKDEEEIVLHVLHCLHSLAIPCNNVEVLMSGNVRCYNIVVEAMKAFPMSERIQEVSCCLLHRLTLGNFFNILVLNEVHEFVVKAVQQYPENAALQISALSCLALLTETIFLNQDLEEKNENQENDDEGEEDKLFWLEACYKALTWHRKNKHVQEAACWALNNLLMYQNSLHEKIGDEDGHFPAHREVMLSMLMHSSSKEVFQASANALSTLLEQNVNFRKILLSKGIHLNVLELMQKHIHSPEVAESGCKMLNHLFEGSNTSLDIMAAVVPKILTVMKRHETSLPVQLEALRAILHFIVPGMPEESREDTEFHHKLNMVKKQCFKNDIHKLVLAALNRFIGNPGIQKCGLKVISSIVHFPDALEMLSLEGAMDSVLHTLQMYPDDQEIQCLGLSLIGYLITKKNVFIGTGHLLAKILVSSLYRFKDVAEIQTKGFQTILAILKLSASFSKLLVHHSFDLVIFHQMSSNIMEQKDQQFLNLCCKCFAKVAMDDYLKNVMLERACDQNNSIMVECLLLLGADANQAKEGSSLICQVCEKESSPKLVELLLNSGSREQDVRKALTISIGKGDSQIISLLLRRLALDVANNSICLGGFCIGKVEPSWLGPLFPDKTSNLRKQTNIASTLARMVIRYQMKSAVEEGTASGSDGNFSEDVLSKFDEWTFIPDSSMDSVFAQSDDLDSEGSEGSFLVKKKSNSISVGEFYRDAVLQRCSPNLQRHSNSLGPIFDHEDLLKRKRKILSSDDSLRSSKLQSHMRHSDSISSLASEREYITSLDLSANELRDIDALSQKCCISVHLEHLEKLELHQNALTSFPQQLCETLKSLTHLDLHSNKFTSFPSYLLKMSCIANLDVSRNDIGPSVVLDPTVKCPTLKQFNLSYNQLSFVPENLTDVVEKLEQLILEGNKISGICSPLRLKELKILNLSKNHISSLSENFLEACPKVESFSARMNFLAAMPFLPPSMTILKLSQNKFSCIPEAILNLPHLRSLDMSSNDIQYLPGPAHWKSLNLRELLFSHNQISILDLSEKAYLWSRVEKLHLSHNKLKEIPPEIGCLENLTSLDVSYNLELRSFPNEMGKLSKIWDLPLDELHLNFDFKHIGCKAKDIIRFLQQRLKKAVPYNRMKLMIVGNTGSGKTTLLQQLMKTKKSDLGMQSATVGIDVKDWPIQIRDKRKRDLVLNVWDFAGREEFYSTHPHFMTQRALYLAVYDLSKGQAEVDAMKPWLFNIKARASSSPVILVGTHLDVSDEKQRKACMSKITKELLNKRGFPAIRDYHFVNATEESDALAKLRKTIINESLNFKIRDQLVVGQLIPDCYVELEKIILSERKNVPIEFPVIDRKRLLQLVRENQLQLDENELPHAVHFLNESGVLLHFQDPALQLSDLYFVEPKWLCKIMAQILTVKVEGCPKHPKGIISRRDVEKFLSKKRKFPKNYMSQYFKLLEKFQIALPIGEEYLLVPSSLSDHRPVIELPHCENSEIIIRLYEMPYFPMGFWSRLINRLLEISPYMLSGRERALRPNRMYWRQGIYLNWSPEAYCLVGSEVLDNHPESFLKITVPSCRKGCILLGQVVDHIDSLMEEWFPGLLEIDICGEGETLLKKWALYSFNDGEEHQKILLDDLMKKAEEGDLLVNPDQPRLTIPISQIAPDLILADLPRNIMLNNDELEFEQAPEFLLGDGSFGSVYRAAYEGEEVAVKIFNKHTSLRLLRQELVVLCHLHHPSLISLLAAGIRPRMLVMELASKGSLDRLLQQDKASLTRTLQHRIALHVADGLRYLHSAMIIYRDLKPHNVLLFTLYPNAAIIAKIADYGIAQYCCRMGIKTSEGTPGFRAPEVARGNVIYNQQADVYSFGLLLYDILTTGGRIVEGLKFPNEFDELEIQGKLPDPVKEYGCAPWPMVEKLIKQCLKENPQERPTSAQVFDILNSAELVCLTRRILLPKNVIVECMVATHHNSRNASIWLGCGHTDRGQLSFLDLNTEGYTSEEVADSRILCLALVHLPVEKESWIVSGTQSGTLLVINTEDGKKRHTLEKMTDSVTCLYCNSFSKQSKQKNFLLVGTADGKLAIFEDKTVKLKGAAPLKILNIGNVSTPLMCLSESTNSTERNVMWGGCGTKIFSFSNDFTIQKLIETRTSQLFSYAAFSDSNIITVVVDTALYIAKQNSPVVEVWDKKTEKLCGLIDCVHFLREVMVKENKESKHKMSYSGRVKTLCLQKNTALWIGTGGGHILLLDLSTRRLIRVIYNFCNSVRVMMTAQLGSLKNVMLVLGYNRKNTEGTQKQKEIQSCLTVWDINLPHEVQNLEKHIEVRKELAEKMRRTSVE
Series [2] is described as follows: Clearance in human hepatocytes at 1 uM by LC-MS/MS analysis. Format: ADME, cell-based, Hepatocyte.
Series [3] addresses T1, Leucine-rich repeat serine/threonine-protein kinase 2. Nature of the series: Inhibition of LRRK2 (unknown origin) phosphorylation by cell-based assay.
The species entered for another series is Homo sapiens. Nature of the series: Selectivity ratio of Ki for JAK2 (unknown origin) to Ki for LRRK2 (unknown origin).
Series [4] is described as follows: Clearance in Sprague-Dawley rat at 1 mg/kg, po and 0.5 mg/kg, iv. Format: ADME, organism-based. To be noted: in vivo.
Series [5] can be described thus: Ratio of unbound drug level in brain to plasma in Sprague-Dawley rat. Type of series: ADME, organism-based.
Another series concerns Rattus norvegicus. Nature of the series: Unbound clearance in Sprague-Dawley rat at 1 mg/kg, po and 0.5 mg/kg, iv. The following applies: in vivo. Type of series: ADME, organism-based.
A short description of series [6]: Clearance in rat hepatocytes at 1 uM by LC-MS/MS analysis. Format: ADME, cell-based, Hepatocyte.
Another series has as its target T2, BCRP (ABCG2) (Homo sapiens, UniProt Q9UNQ0).
T2 sequence (Q9UNQ0 whole entry): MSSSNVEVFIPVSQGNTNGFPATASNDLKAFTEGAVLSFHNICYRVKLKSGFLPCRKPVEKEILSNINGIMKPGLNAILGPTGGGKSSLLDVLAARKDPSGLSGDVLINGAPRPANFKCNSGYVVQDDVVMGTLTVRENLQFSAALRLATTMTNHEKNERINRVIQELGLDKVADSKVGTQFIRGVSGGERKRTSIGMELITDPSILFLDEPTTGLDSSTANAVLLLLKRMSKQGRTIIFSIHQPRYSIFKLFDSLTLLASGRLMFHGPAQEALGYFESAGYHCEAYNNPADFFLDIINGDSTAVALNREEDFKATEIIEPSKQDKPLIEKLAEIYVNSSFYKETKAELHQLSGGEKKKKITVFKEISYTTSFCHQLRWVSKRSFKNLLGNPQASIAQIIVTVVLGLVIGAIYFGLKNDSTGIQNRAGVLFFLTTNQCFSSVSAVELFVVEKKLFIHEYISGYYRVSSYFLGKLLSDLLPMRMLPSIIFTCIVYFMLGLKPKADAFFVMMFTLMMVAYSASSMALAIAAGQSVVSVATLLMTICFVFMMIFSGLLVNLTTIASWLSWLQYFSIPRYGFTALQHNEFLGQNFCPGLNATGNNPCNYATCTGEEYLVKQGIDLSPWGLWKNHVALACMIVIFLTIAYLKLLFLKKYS
Nature of the series: Activity at BCRP transporter (unknown origin) transfected in MDCK cells assessed as efflux ratio of permeability. Format: ADME, cell-based.

Series [7] in a line: Thermodynamic solubility of the crystalline form of compound at pH 7.4. The following applies: read-out: Therm_solubility. Type of series: physicochemical.
Series [8] can be described thus: Volume of distribution in Sprague-Dawley rat at 0.5 mg/kg, iv. The arrangement: dose 0.5 mg/kg, route intravenous. The following applies: in vivo. Type of series: ADME, organism-based.
Series [9] can be described thus: Half life in Sprague-Dawley rat at 0.5 mg/kg, iv. Format: ADME, organism-based. On the set-up: dose 0.5 mg/kg, route intravenous. To be noted: in vivo.
A short description of series [10]: Time dependent inhibition of CYP in human liver microsomes by HPLC-MS analysis. Type of series: ADME. Background: Liver microsomes are vesicles of endoplasmic reticulum, rich in cytochrome P450 enzymes.
Series [11] in a line: Reversible inhibition of CYP in human liver microsomes by mass spectrophotometric analysis. Type of series: ADME.
A short description of series [12]: Volume of distribution in Sprague-Dawley rat at 1 mg/kg, po and 0.5 mg/kg, iv. Type of series: ADME, organism-based. To be noted: in vivo.
Series [13] in a line: Half life in Sprague-Dawley rat at 1 mg/kg, po and 0.5 mg/kg, iv. To be noted: in vivo. Format: ADME, organism-based.

As a reminder, the efflux ratio is the permeability from basolateral to apical divided by that in the opposite direction, in the common usage. Usually Ki stands for a measure of affinity in units of concentration, obtained from inhibition or displacement. As usually defined, the IC50 is the concentration that inhibits the measured activity by half. A higher IC50 goes with weaker potency. Broadly, the half-life is how long it takes for the measured level to halve.

Each structure is given as a SMILES string.

Sequence of MDR1 (P-gp, ABCB1) (P08183 whole entry): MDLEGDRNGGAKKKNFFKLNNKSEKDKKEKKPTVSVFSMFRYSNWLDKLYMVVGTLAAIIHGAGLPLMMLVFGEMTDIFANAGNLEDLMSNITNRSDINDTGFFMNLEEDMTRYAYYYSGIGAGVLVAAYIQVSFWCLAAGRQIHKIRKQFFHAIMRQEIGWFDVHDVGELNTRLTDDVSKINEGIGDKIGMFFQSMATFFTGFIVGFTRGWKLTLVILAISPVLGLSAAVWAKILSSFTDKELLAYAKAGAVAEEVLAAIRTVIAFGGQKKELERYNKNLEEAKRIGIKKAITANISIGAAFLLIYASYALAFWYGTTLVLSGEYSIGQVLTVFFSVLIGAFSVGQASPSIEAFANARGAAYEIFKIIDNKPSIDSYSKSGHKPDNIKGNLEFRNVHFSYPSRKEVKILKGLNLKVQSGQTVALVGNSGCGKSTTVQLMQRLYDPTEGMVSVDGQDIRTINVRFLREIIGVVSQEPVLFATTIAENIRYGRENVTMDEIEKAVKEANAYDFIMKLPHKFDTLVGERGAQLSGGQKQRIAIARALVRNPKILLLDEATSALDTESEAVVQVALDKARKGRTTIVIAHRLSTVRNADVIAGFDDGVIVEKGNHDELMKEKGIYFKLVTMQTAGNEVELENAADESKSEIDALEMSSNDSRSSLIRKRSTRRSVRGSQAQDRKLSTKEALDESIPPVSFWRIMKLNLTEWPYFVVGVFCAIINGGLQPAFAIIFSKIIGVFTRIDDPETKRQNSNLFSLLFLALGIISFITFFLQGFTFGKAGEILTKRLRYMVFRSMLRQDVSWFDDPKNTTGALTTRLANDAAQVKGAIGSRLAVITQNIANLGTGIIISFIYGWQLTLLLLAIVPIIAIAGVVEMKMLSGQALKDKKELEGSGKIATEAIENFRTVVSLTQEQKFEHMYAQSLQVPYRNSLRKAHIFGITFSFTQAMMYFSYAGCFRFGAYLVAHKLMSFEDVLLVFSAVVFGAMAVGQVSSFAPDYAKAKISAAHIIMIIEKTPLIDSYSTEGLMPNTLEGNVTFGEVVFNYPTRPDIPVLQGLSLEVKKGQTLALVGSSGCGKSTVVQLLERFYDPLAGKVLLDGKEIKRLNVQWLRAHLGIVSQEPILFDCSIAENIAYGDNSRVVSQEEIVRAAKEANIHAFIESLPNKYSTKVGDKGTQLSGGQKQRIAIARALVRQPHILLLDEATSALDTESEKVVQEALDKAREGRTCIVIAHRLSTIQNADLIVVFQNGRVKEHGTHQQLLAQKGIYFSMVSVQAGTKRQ

Turning to `CNc1nc(Nc2cnn3c2COC(C)(C)C3)ncc1C(F)(F)F`, the efflux ratio at 5 µM at MDR1 (P-gp, ABCB1) turned out to be 0.7. The compound further registered a Ki in [1] of 0.9 nM. For the same compound, in series [2], the CLhep predicted at 1 µM was 12 mL/min/kg. For the same compound, the IC50 in series [3] came out at 20 nM. The Ratio Ki in the series listed under Homo sapiens is more than 150.

On to `CNc1nc(Nc2cn(C(C)(C)C(=O)NC(C)C)nc2C)ncc1C(F)(F)F`, for which the efflux ratio at 5 µM at MDR1 (P-gp, ABCB1) stood at 1.3. The same compound displayed an IC50 in [3] of 140 nM. In the series filed under Homo sapiens, the Ratio Ki is more than 150.

The compound `CCNc1nc(Nc2cc(C(C)(C)C#N)nn2C)ncc1C(F)(F)F` yielded a clearance in series [4] of 27 mL/min/kg. In addition, on MDR1 (P-gp, ABCB1), the efflux ratio at 5 µM turned out to be 1.5. Also, the Kp uu in [5] amounted to 0.5. For the same compound, the CL free in the series with Rattus norvegicus is 201 mL/min/kg. Moreover, the CLhep predicted at 1 µM was 5 mL/min/kg in [2] and 18 mL/min/kg in series [6]. Moreover, in the series listed under Homo sapiens, the Ratio Ki was more than 150.

`CNc1nc(Nc2cnn(C(C)(C)C#N)c2C)ncc1C(F)(F)F` showed a clearance in series [4] of 65 mL/min/kg. Also, the efflux ratio at 5 µM at MDR1 (P-gp, ABCB1) was determined as 1. In addition, the Kp uu in series [5] amounted to 0.4. In the series on Rattus norvegicus, this compound registered a CL free of 423 mL/min/kg. For the same compound, the inhibitory constant (Ki) in series [1] was 1 nM. In addition, the CLhep predicted at 1 µM is 4 mL/min/kg in [2] and 33 mL/min/kg in series [6]. For the same compound, the 50% inhibitory concentration (IC50) in series [3] was found to be 5 nM. Further, the Ratio Ki in the series listed under Homo sapiens was more than 150.

In series [4], `CNc1nc(Nc2cn([C@H]3CCN(C4COC4)C[C@H]3F)nc2C)ncc1C(F)(F)F` (relative stereo) came in with a clearance of 16 mL/min/kg. Further, the efflux ratio at 5 µM at MDR1 (P-gp, ABCB1) stood at 2.2. In addition, in series [5], the Kp uu is 0.08. Moreover, the CL free with Rattus norvegicus was found to be 42 mL/min/kg. The compound further returned a Ki in [1] of 2 nM. In addition, the CLhep predicted at 1 µM in [2] is 1 mL/min/kg. Also, the efflux ratio on BCRP (ABCG2) is 4.2. Besides, in [3], the half-maximal inhibitory concentration (IC50) was determined as 14 nM. In addition, in the series listed under Homo sapiens, the Ratio Ki was more than 150.

Consider `CCNc1nc(Nc2cc(F)c(C(=O)N3CCOCC3)cc2OC)ncc1C(F)(F)F`, for which the solubility thermodynamic in series [7] is less than 2 µg/mL. Besides, in the series listed under Homo sapiens, the Ratio Ki is more than 150.

In the case of `CNc1nc(Nc2cnn3c2C(C)O[C@@H](C)C3)ncc1C(F)(F)F` (stereo not given in full), the efflux ratio at 5 µM at MDR1 (P-gp, ABCB1) worked out at 1. This compound also gave a Ki in series [1] of 6 nM. In addition, the CLhep predicted at 1 µM in series [2] was 8 mL/min/kg. The same compound showed an IC50 in series [3] of 49 nM. Further, in the series listed under Homo sapiens, the Ratio Ki was more than 150.

The compound `CNc1nc(Nc2cn(C3(C#N)CC3)nc2C)ncc1C(F)(F)F` displayed a clearance in series [4] of 55 mL/min/kg. Also, the efflux ratio at 5 µM on MDR1 (P-gp, ABCB1) was 1.4. Besides, in series [5], the Kp uu was found to be 0.4. The same compound returned a CL free with Rattus norvegicus of 213 mL/min/kg. This compound came in with a Ki in [1] of 3 nM. The values for the CLhep predicted at 1 µM in series [2] and in [6] were 5 mL/min/kg and 14 mL/min/kg, respectively. The compound further registered an IC50 in [3] of 30 nM. The Ratio Ki in the series filed under Homo sapiens is more than 150.

Compound `CNc1nc(Nc2cnn(C3(C#N)CC3)c2Cl)ncc1C(F)(F)F` displayed a clearance in series [4] of 22 mL/min/kg. The efflux ratio at 5 µM on MDR1 (P-gp, ABCB1) stood at 1.3. For the same compound, in [5], the Kp uu came out at 0.6. Besides, the CL free in the series with Rattus norvegicus worked out at 431 mL/min/kg. The affinity in [1], expressed as Ki, was 2 nM. Moreover, the CLhep predicted at 1 µM in [2] was 9 mL/min/kg; in [6] it was 30 mL/min/kg. This compound showed a 50% inhibitory concentration (IC50) in series [3] of 22 nM. In the series filed under Homo sapiens, the Ratio Ki is more than 150.

`CNc1nc(Nc2cnn(C3CCOCC3)c2C)ncc1C(F)(F)F`: the clearance in [4] worked out at 74 mL/min/kg. Also, on MDR1 (P-gp, ABCB1), the efflux ratio at 5 µM amounted to 2.3. Further, the Kp uu in series [5] amounted to 0.3. Moreover, the Vd in series [8] turned out to be 1.1 L/kg. Further, in the series on Rattus norvegicus, the CL free stood at 232 mL/min/kg. For the same compound, the Ki in [1] was 2 nM. Moreover, the figures for the CLhep predicted at 1 µM in series [2] and in series [6] were 5 mL/min/kg and 35 mL/min/kg, respectively. In [9], this compound gave a half-life of 0.17 h. For the same compound, half-maximal inhibition in [3] (IC50) required 11 nM. The Ratio Ki in the series listed under Homo sapiens is more than 150.

As to `CNc1nc(Nc2cnn3c2COCC3)ncc1C(F)(F)F`, the efflux ratio at 5 µM on MDR1 (P-gp, ABCB1) was found to be 1. Moreover, the affinity in series [1], expressed as Ki, was 3 nM. In addition, half-maximal inhibition in [3] (IC50) required 18 nM. For the same compound, the Ratio Ki in the series listed under Homo sapiens was more than 150.

Consider `CNc1nc(Nc2cnn(C3CCN(C4COC4)CC3)c2C)ncc1C(F)(F)F`, for which the clearance in [4] amounted to 22 mL/min/kg. In addition, at MDR1 (P-gp, ABCB1), the efflux ratio at 5 µM turned out to be 5.1. Also, in series [5], the Kp uu was found to be 0.06. Further, the “inhibition (INH)” value in series [10] and in series [11] was “Not Active” throughout. In addition, in the series on Rattus norvegicus, the CL free was found to be 45 mL/min/kg. The compound further had an inhibitory constant (Ki) in series [1] of 4 nM. Moreover, the CLhep predicted at 1 µM in series [2] was 3 mL/min/kg; in series [6] it was 9 mL/min/kg. In [12], this compound came in with a Vd of 1.7 L/kg. In addition, half-maximal inhibition in series [3] (IC50) was put at 20 nM. For the same compound, the Ratio Ki in the series listed under Homo sapiens is more than 150. The same compound showed a half-life in series [13] of 2.1 h.

Compound `CNC(=O)C(C)(C)n1cc(Nc2ncc(C(F)(F)F)c(NC)n2)c(C)n1` gave a clearance in [4] of 12 mL/min/kg. On MDR1 (P-gp, ABCB1), the efflux ratio at 5 µM worked out at 5.5. The compound further displayed a CL free in the series with Rattus norvegicus of 27 mL/min/kg. The same compound yielded a half-maximal inhibitory concentration (IC50) in [3] of 36 nM. Further, the Ratio Ki in the series listed under Homo sapiens was more than 150.

As to `CNc1nc(Nc2cn(C(C)(C)C(=O)NCC(F)(F)F)nc2C)ncc1C(F)(F)F`, the efflux ratio at 5 µM on MDR1 (P-gp, ABCB1) amounted to 1.5. For the same compound, the half-inhibitory concentration (IC50) in series [3] was found to be 53 nM. In addition, the Ratio Ki in the series listed under Homo sapiens is more than 150.

On to `CCNC(=O)C(C)(C)n1cc(Nc2ncc(C(F)(F)F)c(NC)n2)c(C)n1`, for which, on MDR1 (P-gp, ABCB1), the efflux ratio at 5 µM was 4. In [3], this compound showed an IC50 of 99 nM. Also, the Ratio Ki in the series listed under Homo sapiens was more than 150.

Consider `CNc1nc(Nc2cnn3c2C(C)OCC3)ncc1C(F)(F)F` (stereo not given), for which the clearance in series [4] is 43 mL/min/kg. Besides, the efflux ratio at 5 µM at MDR1 (P-gp, ABCB1) stood at 1.3. This compound also gave a CL free in the series with Rattus norvegicus of 105 mL/min/kg. Further, affinity in series [1] was put at a Ki of 3 nM. The CLhep predicted at 1 µM in [2] was 3 mL/min/kg; in [6], 19 mL/min/kg. In series [3], this compound gave a half-inhibitory concentration (IC50) of 42 nM. Besides, in the series listed under Homo sapiens, the Ratio Ki was more than 150.

The record behind these values is ChEMBL document CHEMBL3120096 (J Med Chem, 2014).
